The values below come from patent publication US20090156504A1, “METHODS OF TREATING BLOOD CELL DEPLETION” (ImmuneRegen Biosciences, Inc., priority 2007, published 2009).

The subject of data set [1] is Colony Forming Unit-Megakaryocyte (CFU-Mk) cultures. The data set can be described thus: Colony forming unit assay, CFU-Mk (Example 6). It is filed as cell-based, human. Conditions: for effect of receptor antagonist on substance P-enhanced platelet colony formation: in the presence of substance P. From the text: (§1) As stem cells differentiate in response to growth factors, they form a colony of cells with distinct morphologies that can be visualized using a microscope. This study examined the formation of three different progenitor cell populations, erythrocytes, platelets and granulocytes/macrophages.
(§2) Bone marrow aspirates were obtained from three healthy donors between 18 and 35 years of age following appropriate guidelines and protocols. Bone marrow mononuclear cells were isolated using a Ficoll-Hypaque density gradient, separating red blood cells from the others. Cells from each donor were processed independently and used for setting up individual experiments to assess the effects, if any, of donor variability.
Cells (1×10^5) were plated in duplicate onto 35 mm tissue culture plates for each condition tested and set up as described in Rameshwar et al. 1993, Blood. 81:2, 391-398. Erythroid and granulocyte/macrophage cultures were plated using methylcellulose and megakaryocyte cultures (platelet precursors) used a collagen-based support (StemCell Technologies, Vancouver, Canada, catalogue #04973). […] CP 99,994 (Pfizer) was used as a neurokinin-1 receptor antagonist and SR 48968 (Sanofi) was used as a neurokinin-2 receptor antagonist.
Cultures were set up with limited cytokines and growth factors which would promote differentiation of one progenitor per plate.
Each compound was dissolved in endotoxin-free water to a final concentration of 0.1 mM. After reconstitution, the solutions were aliquoted into siliconized microcentrifuge tubes and exposed to nitrogen gas, eliminating oxygen in the head space of the enclosure. All aliquots were stored at −20° C. until use and used within one month of reconstitution. See, Rameshwar, et al. 1997, J. Immunol.
Cultures were incubated at 37° C. with 5% CO2 for approximately 14 days, after which colonies were manually enumerated using a microscope. […]

The subject of data set [2] is human bone marrow-derived hematopoietic cell populations. In words: CFC differentiation and ATP proliferation assays, overall statements on the seven cell populations (Examples 4 and 5). It is filed as cell-based. How it is done:
The compound was dissolved in 1 ml of Iscove's Modified Dulbecco's Medium (IMDM) and a serial dose response prepared in single log doses so that the final dose in culture ranged from 1 nM to 1×10^−16 M. All working dilutions were performed in IMDM.
Starting with human bone marrow aspirate, the mononuclear cell (MNC) fraction was separated from the whole bone marrow using Ficoll-Paque density gradient centrifugation. […] The cell concentration was adjusted so that the final cell concentration in culture was 10,000 cells/well.
Human bone marrow MNC was dissolved in IMDM and cultured at a concentration of 10,000 cell/well in a CAMEO™-96 Master Mix (HemoGenix, Inc., Colorado Springs, Colo.). Master Mix is a HemoGenix proprietary cell culture media comprised of a serum mix (4 parts), a methyl cellulose mix (4 parts) and a growth factor mix (1 part) with the bone marrow target cells (1 part). See, Rich and Hall 2005, Toxicol. Sci. 87(2): 427-441.
Different combinations and concentrations of growth factors are used to induce differentiation of cells into specific cell types. […]
Prior to processing all 96-well plates, the total colony counts/well were manually enumerated by microscopy. The mean, standard deviation and percent coefficient of variation was calculated for all groups, transposed and plotted. The intracellular ATP (iATP) concentration was measured after manual enumeration. The output of the luminometer is non-standardized Relative Luminescence Units (RLU). […] This allowed the RLU values to be automatically calculated into standardized ATP (μM) units. For both the RLU and ATP values derived from each well, the luminometer software calculated the mean, standard deviation and percent coefficient of variation. […]

Data set [3] concerns Blast Forming Unit—Erythroid (BFU-E) cultures. In words: Colony forming unit assay, BFU-E (Example 6). The class given is cell-based. Conditions: human bone marrow cells, about 14 days, FIG. 1; control = zero level.
Description: as §1, §2
(§3) Cells (1×10^5) were plated in duplicate onto 35 mm tissue culture plates for each condition tested and set up as described in Rameshwar et al. 1993, Blood. 81:2, 391-398. Erythroid and granulocyte/macrophage cultures were plated using methylcellulose and megakaryocyte cultures (platelet precursors) used a collagen-based support (StemCell Technologies, Vancouver, Canada, catalogue #04973). […] CP 99,994 (Pfizer) was used as a neurokinin-1 receptor antagonist and SR 48968 (Sanofi) was used as a neurokinin-2 receptor antagonist. […]

Data set [4] concerns Colony Forming Unit—Erythroid (CFU-E) cultures. In words: Colony forming unit assay, CFU-E (Example 6). It is filed as cell-based. Conditions: human bone marrow cells, about 14 days, FIG. 2.
Description: as §1, §2, §3

As for `COc1ccccc1CN[C@H]1CCCN[C@H]1c1ccccc1` [CP-99,994], the “effect of receptor antagonist on substance P-enhanced platelet colony formation” value in data set [1] was “blocks the stimulatory activity of substance P”.
With `CC(C)C[C@H](NC(=O)CN(C)C(=O)[C@H](Cc1ccccc1)NC(=O)[C@H](Cc1ccccc1)NC(=O)[C@H](CCC(N)=O)NC(=O)[C@H](CCC(N)=O)NC(=O)[C@@H]1CCCN1C(=O)[C@H](CCCCN)NC(=O)[C@@H]1CCCN1C(=O)[C@@H](N)CCCNC(=N)N)C(=O)N[C@@H](CCS(C)(=O)=O)C(N)=O` [Homspera®], the “toxicity to T-CFC and B-CFC” value in data set [2] (Example 4, levels tested (10^−16 M to 1 nM)) is given as “do not demonstrate toxicity at the levels tested”. Besides, the cytotoxicity entry in data set [2] (Example 4, most of populations, 14 days, 10^−16 M to 1 nM) is “apparent absence of distinct cytotoxicity”. For the same molecule, in data set [2] (Example 5, three donors, seven cell populations, highest doses (1 nM)), the “toxicity in CFC assay” value is listed as “no apparent toxicity at the highest doses”.
Turning to `CC(=O)NC1(c2ccccc2)CCN(CC[C@H](CN(C)C(=O)c2ccccc2)c2ccc(Cl)c(Cl)c2)CC1` [SR48968], the “effect of receptor antagonist on substance P-enhanced platelet colony formation” value in data set [1] is reported as “showed no effect on substance P activity”.
Consider RPKPQQFFGLM-NH2 [substance P], for which the “BFU-E colony increase from control values” in data set [3] is listed as approximately 60%. In data set [1] (approximately 2-fold stimulation), the “effective concentration for platelet precursors” value was 10^−8 M. Moreover, in data set [4], the “CFU-E colony formation enhancement from control values” is “about 70%”.
